Experimental data as given in paper PMC8294803, “A Roadmap to the Structure-Related Metabolism Pathways of Per- and Polyfluoroalkyl Substances in the Early Life Stages of Zebrafish (Danio rerio)” (Environmental Health Perspectives, 2021).
“And” between values parts separate entries of the source, which are not always exact repeats. Equal entries are not always repeated.

Columns and labels:
[1] = tested on: soil microcosms; parameters: method as in Mejia-Avendaño et al. 2016; conditions: ref Mejia-Avendaño et al. 2016; cited from earlier work
[2] = tested on: liver fatty acid binding protein (L-FABP); parameters: method as in Yang et al. 2020; conditions: ref Yang et al. 2020, cited from earlier work; for Kd: read-out: Kd (μM), L-FABP binding affinity
[3] = tested on: zebrafish embryos; conditions: for pericardial oedemata, Mean / spinal curvature, Mean / tail dysplasia, Mean: 5μM through 120 hpf, malformation rate; for Mortality (%): 5 µM, exposure through 120 hpf
[4] = tested on: zebrafish larvae; assay: Nontargeted analysis of PFAS metabolites in zebrafish larvae (high-resolution MS)
Procedure: Zebrafish embryos were collected immediately after spawning, within 1 h, and subsequently transferred to 24-well plates with 1mL of facility water ( 0.036g sea salt, 0.15g sodium bicarbonate in 2L of reverse osmosis water). […] Three well replicates on the same plate were conducted for each concentration of individual chemical. […] Seven batches of experiments were performed to test all 74 PFAS. DMSO controls were incorporated in each batch of exposure experiments. Three replicates were performed for each treatment group, and 20 embryos were used for each replicate. […] For daily replenishment, 2.5mL of old exposure medium were replaced with freshly prepared medium every 24 h from 24 to 96 h post fertilization (hpf). Hatched or dead embryo numbers were recorded every 24 hpf, after which dead embryos were discarded from the growth media. Dead embryos or unhatched embryos were not used for PFAS measurement because the metabolism of PFAS might have been impacted. Zebrafish larvae collection occurred at 120 hpf. First, the larvae were anesthetized by cooling the plate in ice water (0–4°C) for ∼20 min . Then 8–15 larvae in each well were transferred into 1.5-mL tubes. Exposure media was carefully removed, and then the larvae were weighed (wet weight) after blotting excess water with a paper towel. […] Samples were stored at −80 °C until further chemical analysis was performed. Survival rate and hatching rate were calculated by summarizing all the documented data from the whole treatment duration. […] The exposure experiment of PFOSA was repeated using the same procedure as described above.
Each sample was spiked with 2μL of 0.2μg/mL mass-labeled PFAS mixture. Following this, 500μL of dichloromethane/methanol (2:1, vol/vol) was added to each sample for PFAS extraction. Larvae were then homogenized via ultrasonic probe, followed by 30 min of shaking and 30 min of sonication. Each sample was centrifuged at 14,000×g for 5 min, after which the supernatant was transferred to new tubes. Extraction was repeated once and the two supernatants were combined, evaporated under nitrogen flow, and reconstituted in 200μL of methanol for MS analysis.
Three microliters of each zebrafish extract was applied to a C18 column ( 1.5μm; 2.1mm×50mm; Thermo Scientific) and analyzed using a Vanquish ultra-HPLC system (Thermo Fisher Scientific) coupled to a Q Exactive high-resolution mass spectrometer (Thermo Fisher Scientific). The sampler and column compartments were maintained at 4°C and 40°C, respectively. The aqueous mobile phase solution (A) consisted of water, whereas the organic mobile phase solution (B) consisted of acetonitrile. […] MS data was acquired in full scan mode (100–1000 m/z, 70,000 mass resolution, 3×10^6 maximum ions collected per 100 ms), and tandem MS (MS/MS) data was recorded by all-ion fragmentation (AIF) mode. Negative and positive ion modes were carried out simultaneously at a 10-min method duration. […] An overview of the analyses conducted on the various PFAS is available in Table S2.
Nontargeted data analysis was accomplished with R scripts that are available on Github (https://github.com/huiUofT/PFASmetabolite). […] The peak features were matched across samples with a mass tolerance of 2.5 ppm and a RT window of 20 s, after RT adjustment. The ratio of abundances of each feature in treatment groups relative to the control group (DMSO) was calculated. The p -values of the difference between two groups were determined by student’s t -tests.

[5] = tested on: zebrafish larvae; assay: Bioconcentration factors (BCF) of PFAS in zebrafish larvae; conditions: zebrafish larvae; for BCF 0.5µM: 0.5 µM exposure; for BCF 0.5µM / BCF 5µM: 120 hpf, three replicates; for BCF 5µM: 5 µM exposure
Outline: (§1)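 Zebrafish embryos collected within 1 h post-spawning were exposed individually to each PFAS in facility water with DMSO controls, medium renewed every 24 h from 24 to 96 hpf. Live hatched larvae collected at 120 hpf, wet-weighed, extracted with dichloromethane/methanol and analysed by UHPLC–high-resolution MS against mass-labelled standards.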

[6] = as above; conditions: zebrafish (Danio rerio), whole larvae, other: immersion in exposure medium, 5 µM
Outline: as §1

[7] = tested on: zebrafish larvae; assay: Identification of taurine conjugates by the DIPIC-Frag method in zebrafish larvae; format: in vivo, Danio rerio; conditions: among 74 PFAS
Source text: To identify the taurine conjugates in zebrafish larvae exposed to PFAS, we used the data-independent precursor isolation and characteristic fragment (DIPIC-Frag) method developed in previous studies ([Peng et al. 2015], [2016]) to enhance the coverage inspired by the detection of the characteristic fragment from taurine conjugates ( [taurine-H]^− , m/z 124.0063). Then, the taurine fragment peak was extracted from each AIF window across all 243 raw MS data. Once the taurine fragment peak was detected, corresponding precursor ions were identified from the same window and sample by aligning their chromatographic peaks. The precursor ions were further confirmed by their co-occurrences with the taurine fragment across samples. Once precursor ions were identified, the compound formulas and structures were predicted by interpreting high-resolution MS and MS/MS spectra, as mentioned above.

Structure (SMILES) | Half-life, biodegradation by soil microcosms [1] | L-FABP ligand [2] | pericardial oedemata, Mean [3] | spinal curvature, Mean [3] | tail dysplasia, Mean [3] | Mortality (%) [3] | Metabolite peak features detected ([4]; zebrafish larvae exposed to 5μM) | BCF at 0.5μM compared with 5μM [5] | BCF 0.5µM [5] | BCF 5µM [5] | Peak intensity of PFCA in zebrafish embryos directly exposed to the PFCA ([4]; 5μM through 120 hpf, single replicates, listed as PFBA) | concentration at 120 hpf [6] | Kd [2] | Taurine conjugates detected [7] | Profile of metabolites (%): Alcohol ([4]; zebrafish larvae, Figure 5B) | Peak intensity: Alcohol (parent FTOH) ([4]; zebrafish larvae, single replicates, Figure 5A)
C[N+](C)(C)CCCNS(=O)(=O)C(F)(F)C(F)(F)C(F)(F)C(F)(F)C(F)(F)C(F)(F)C(F)(F)C(F)(F)F [compound 5, Perfluorooctanesulfonamido ammonium iodide] | 142 days | not identified as L-FABP ligands | 0.00% | 1.11% | 0.00% | 2.2% | 74 | comparable or even higher BCFs at 5μM | 48.14 L/kg | 56 ± 16 L/kg | – | – | – | – | – | –
O=C(O)C(F)(F)C(F)(F)C(F)(F)F [compound 12, Perfluorobutanoic acid] | – | – | 1.11% | 0.00% | 0.00% | 4.4% | – | – | 2.559 L/kg | 1.0 ± 0.28 L/kg | 3728507 and 3082077 and 5690847 | 3.1 ± 0.88 µM | – | – | – | –
O=C(O)CCC(F)(F)C(F)(F)C(F)(F)C(F)(F)C(F)(F)F [compound 14, 2H,2H,3H,3H-Perfluorooctanoic acid] | – | – | 0.00% | 0.00% | 1.11% | 1.1% | – | comparable or even higher BCFs at 5μM | 6.7299 L/kg | 8.7 ± 2.1 L/kg | – | – | 158 µM | taurine conjugates were detected | – | –
COC(=O)CCC(F)(F)C(F)(F)C(F)(F)C(F)(F)F [compound 39, Methyl 2H,2H,3H,3H-perfluoroheptanoate] | – | – | 0.00% | 0.00% | 0.00% | 1.1% | – | – | – | – | – | – | – | taurine conjugates were detected | – | –
OCCCCC(F)(F)C(F)(F)C(F)(F)C(F)(F)F [compound 40, 4:4 Fluorotelomer alcohol] | – | – | 0.00% | 0.00% | 0.00% | 0% | – | – | – | – | – | – | – | taurine conjugates were detected | 0.00% | 0
OCCCC(F)(F)C(F)(F)C(F)(F)F [compound 49, 3-(Perfluoropropyl)propanol] | – | – | 0.00% | 0.00% | 0.00% | 1.1% | – | – | – | – | – | – | – | taurine conjugates were detected | – | –
O=C(O)C=CC(F)(C(F)(F)F)C(F)(F)F [compound 56, 3-(Perfluoroisopropyl)-2-propenoic acid] | – | – | 0.00% | 0.00% | 0.00% | 4.4% | – | – | 2.65 L/kg | 1.6 ± 0.21 L/kg | – | – | – | taurine conjugates were detected | – | –
O=C(O)C(F)(F)C(F)(F)C(F)(F)C(F)(F)C(F)(F)C(F)(F)C(F)(F)F [compound 74, Perfluorooctanoic acid] | – | – | 0.00% | 0.00% | 0.00% | 4.4% | – | – | 31.5419 L/kg | 17 ± 3.2 L/kg | – | 76 ± 1.6 µM | 18.7 µM | – | – | –
